For the data set the following is noted: Liquid, Ebulliometric method (Recirculating still).

The structures appear in SMILES notation. Numbers after ± are expanded uncertainties.

As usually defined, the vapor or sublimation pressure is the pressure of vapour in equilibrium with the condensed phase.

In the case of `CC(C)=O` [acetone], the “vapor or sublimation pressure” value (329 K) is 100 ± 0.7 kPa.
As for `CO` [methanol], the “vapor or sublimation pressure” value (337.42 K) was determined as 100 ± 0.7 kPa.

The values are drawn from the NIST ThermoML archive (doi:10.1021/je200972w).
